The values that follow come from US10947216B2, “Amide compounds and method for making and using” (Rigel Pharmaceuticals, Inc., priority 2016, dated 2021).

As a reminder, the EC50 is the concentration needed to bring the measured effect to its halfway point.

Each structure is given as a SMILES string. Where a name gives a salt, the structure may show the parent alone.

One assay deals with IL-23 (p19/p40). Kind of assay: IL23-p19 ELISA, dendritic cells (DC differentiated from human PBMC, IFNγ primed), LPS stimulated. In kind it is cell-based. Particulars: Dendritic cell, human PBMC-derived dendritic cells, 1 h compound pre-incubation, LPS 1 μg/ml 18 hours, 10 pt. As to the method: Compound Screening Using DC Cells
I. Differentiation of PBMC's to DC Cells:
After 2 hours, the media including floating cells was aspirated out carefully and 12 ml of fresh RPMI media (10% FBS) containing GMCSF (100 ng/ml) and IL4 (20 ng/ml) was added, and the flask was kept in a 37° C. incubator for 7 days.
After 3 days, fresh GMCSF (100 ng/ml) and IL4 (20 ng/ml) were added to the flask and the incubation continued. After 7 days, the fully differentiated cells were harvested by spinning down (1200 rpm/5 min) and aspirating the media. The cells were suspended in fresh RPMI media (10% FBS) containing 50 ng/ml IFNγ (1000 U/ml) and then plated (50K/well in 100 μl) onto a white clear bottom 96 well plate and left in a 37° C. incubator for 24 hours.
II. Addition of Compounds:
After 24 hours incubation, 100 μl of RPMI media was added containing 2× concentrated test compound per well to the above cell-culture media (final concentration becomes 1×) and the plates were pre-incubated for 1 hour at 37° C. before stimulating with LPS.
The mixture was shaken and incubated the plates at 37° C. for an additional 18 hours.
155 μl of the supernatant was harvested from each well carefully (without the tip touching the bottom of the well) and to the remaining 50 μl/well of the cell culture plate was added 50 μl of Cell Titer Glo reagent. The mixture was incubated for 1-2 minutes on a shaker and the plate was read for luminescence intensity to determine the compound cytotoxicity. The cell culture supernatant collected above was used to carry out IL23 ELISA (65 μl—Supernatant) and IL10 ELISA (90 μl—Supernatant) as described below.
Human IL-23 (p19/p40) ELISA Protocol (e-Biosciences)
To 10.5 ml PBS add 50 μl of anti-IL23 (p19) was added capture antibody (2.5 μg/ml). The mixture was mixed well and 100 μl of the coating solution was added to each well of the 96 well white plates from Pierce. The wells were covered and incubated overnight at 4° C.
The anti-IL23 (p19)-antibody-coated plates were washed 2× using TBST (use plate washer) and blocked using 200 μl of 0.5% Casein for 1.5-2 hours at room temperature with shaking.
Addition of Supernatant and Detection:
The plates were washed 2× using TBST and the supernatant was transferred (65 μl/well) to the above pre-blocked/IL23(p19)-antibody-coated 96 well plate, and incubated at room temperature for 1.5 hours with shaking.
The plates were washed 4× using TBST (plate washer) and 100 μl/well detection antibody solution prepared from 2 μl of biotin labeled anti-IL-12 (p40/p70) antibody in 11 ml 1% BSA/PBS solution (1-5000 dilution) was added. The plates were incubated for 1 hour with shaking at Room temperature.
Again, the plates were washed 4× with TBST and 100 μl of HRP labeled Streptavidin (R&D Systems) solution (10 μl/10 ml 1% BSA solution) was added, and the plates were incubated at room temperature for another 45 minutes with shaking.
After 45 minutes, the plates were washed with TBST 4× and 100 μl/well Super Signal ELISA Pico Chemiluminescent Substrate from Pierce (3.5 ml A+3.5 ml B+3.5 ml MQ water) was added. The plates were shaken for 1-2 minutes then read on a plate reader.
(In general: In an ELISA, binding on a coated surface is turned into a signal by an enzyme label.)
`CC(C)Oc1cncc(-c2cccc(C(=O)Nc3cn(C4COC4)nc3-c3ccccn3)n2)c1` [Compound I-130, 5′-isopropoxy-N-(1-(oxetan-3-yl)-3-(pyridin-2-yl)-1H-pyrazol-4-yl)-[2,3′-bipyridine]-6-carboxamide]: the EC50 was 1.65 µM.

In the case of `CC(C)Oc1cncc(-c2cccc(C(=O)Nc3cn(C)nc3-c3ccccn3)n2)c1` [Compound I-22, 5′-isopropoxy-N-(1-methyl-3-(pyridin-2-yl)-1H-pyrazol-4-yl)-[2,3′-bipyridine]-6-carboxamide], it took 8.56 µM to reach a half-maximal effect (EC50).

`Cn1cc(NC(=O)c2cccc(-c3ccccc3)n2)c(-c2ccccn2)n1` [Compound I-48, N-(1-methyl-3-(pyridin-2-yl)-1H-pyrazol-4-yl)-6-phenylpicolinamide] came in with an EC50 of 9.16 µM.

Compound `Cn1cc(NC(=O)c2cccc(-c3cncc(C(N)=O)c3)n2)c(-c2ccccn2)n1` [Compound I-40, N6-(1-methyl-3-(pyridin-2-yl)-1H-pyrazol-4-yl)-[2,3′-bipyridine]-5′,6-dicarboxamide] yielded an EC50 of 2.99 µM.

The test system of another assay is IL-23p19. Kind of assay: LPS Induced IL23p19 in THP-1 Cells (with IFNγ Primed) Assay. Conditions: Homo sapiens, THP-1, THP-1 cells, IFNγ (50 ng/mL) primed, 1 hour compound pre-incubation, LPS 1 ug/mL 18 hours, 10 pt; read-out: IL23-p19 ELISA, THP1-IFNy, LPS, 10 pt EC50. It counts as cell-based, human. The procedure: LPS Induced IL23p19 in THP-1 Cells (with IFNγ Primed) Assay
Method THP-1 Cells Stimulation:
On day 1, 50K/well THP-1 cells were seeded and primed with IFNγ (50 ng/mL) in 384-well plates for about 18 hours in RPMI media with 10% FBS. […] 50 μL/well 2× compound was added to 50 μL/well THP-1 cells (with IFNγ primed) in duplicate in 384 well tissue culture plates. […] Day 3, after stimulation for 18 hours at 37° C., 5% CO2, the assay plate was centrifuged and 70 μL/well supernatant was harvested. IL-23p19 protein in 70 μL/well of supernatant was measured by sandwich ELISA, and 25 μl/well Cell Titer Glo reagent was added to the remaining cells to measure compound toxicity.
Human IL-23p19 Sandwich ELISA:
Maxisorp immuno ELISA plates were pre-coated with 25 μL/well of anti-IL-23p19 capture antibody (2.5 ug/mL) in PBS overnight at room temperature. After washing with 1×PBST, the plates were blocked using 100 μL/well of 1% BSA in PBS for 2 hours at room temperature. The plates were washed three times with 1×PBST and 70 μL/well supernatant were added. The plates were incubated at room temperature for 2 hours with shaking and washed three times with 1×PBST. 25 μL/well of biotin labeled anti-IL-12(p40/p70) detection antibody (100 ng/mL) in PBS with 1% BSA was added and the plates were incubated at room temperature for 2 hours with shaking. After washing three times with 1×PBST, 25 μL/well of streptavidin-HRP (1:200) in PBS with 1% BSA was added and the plates were incubated at room temperature for 20 minutes with shaking. The plates were washed three times with 1×PBST and 25 μL/well of Super Signal ELISA Pico Chemiluminescent Substrate were added. The plates were read with a luminometer, and the chemiluminescence values were entered into Athena (Rigel) for curve fitting, EC50 calculation, and database storage.
On to `O=C(Nc1cn(C(CO)CO)nc1-c1ccccn1)c1cccc(-c2cccnc2)n1` [Compound I-125, N-(1-(1,3-dihydroxypropan-2-yl)-3-(pyridin-2-yl)-1H-pyrazol-4-yl)-[2,3′-bipyridine]-6-carboxamide], for which the EC50 worked out at 3.92 µM.

For `Cc1cncc(-c2cccc(C(=O)Nc3cn(C)nc3N3CCCC3)n2)c1` [Compound I-75, 5′-methyl-N-(1-methyl-3-(pyrrolidin-1-yl)-1H-pyrazol-4-yl)-[2,3′-bipyridine]-6-carboxamide], the EC50 is 15.9 µM.

With `CNc1cccc(-c2cccc(C(=O)Nc3cn(C)nc3-c3ccccn3)n2)c1` [Compound I-58, N-(1-methyl-3-(pyridin-2-yl)-1H-pyrazol-4-yl)-6-(3-(methylamino)phenyl)picolinamide], the EC50 was 15.2 µM.

For `Cc1cccc(-c2cccc(C(=O)Nc3cn(C)nc3-c3ccccn3)n2)c1` [Compound I-49, N-(1-methyl-3-(pyridin-2-yl)-1H-pyrazol-4-yl)-6-(m-tolyl)picolinamide], the EC50 turned out to be 72.1 µM.

`COc1cc(-c2cccc(C(=O)Nc3cn(C)nc3-c3ccccn3)n2)ccn1` [Compound I-21, 2′-methoxy-N-(1-methyl-3-(pyridin-2-yl)-1H-pyrazol-4-yl)-[2,4′-bipyridine]-6-carboxamide]: the EC50 stood at 398 µM.

With `Cn1cc(NC(=O)c2cccc(-c3ccnc(C#N)c3)n2)c(-c2ccccn2)n1` [Compound I-42, 2′-cyano-N-(1-methyl-3-(pyridin-2-yl)-1H-pyrazol-4-yl)-[2,4′-bipyridine]-6-carboxamide], the EC50 worked out at 25.5 µM.

Turning to `Cn1cc(NC(=O)c2cccc(-c3cnc4cc[nH]c4c3)n2)c(-c2ccccn2)n1` [Compound I-45, N-(1-methyl-3-(pyridin-2-yl)-1H-pyrazol-4-yl)-6-(1H-pyrrolo[3,2-b]pyridin-6-yl)picolinamide], the EC50 stood at 3.46 µM.

With `O=C(O)c1cncc(-c2cccc(C(=O)Nc3cn(C4COC4)nc3-c3ccccn3)n2)c1` [Compound I-135, 6-((1-(oxetan-3-yl)-3-(pyridin-2-yl)-1H-pyrazol-4-yl)carbamoyl)-[2,3′-bipyridine]-5′-carboxylic acid], the EC50 is 41.7 µM.

For the compound `Cc1cncc(-c2cccc(C(=O)Nc3cn(C(CO)CO)nc3-c3ccccn3)n2)c1` [Compound I-126, N-(1-(1,3-dihydroxypropan-2-yl)-3-(pyridin-2-yl)-1H-pyrazol-4-yl)-5′-methyl-[2,3′-bipyridine]-6-carboxamide], the EC50 was found to be 3.35 µM.

Take `COc1ccc(-c2cccc(C(=O)Nc3cn(C)nc3-c3ccccn3)n2)cn1` [Compound I-20, 6′-methoxy-N-(1-methyl-3-(pyridin-2-yl)-1H-pyrazol-4-yl)-[2,3′-bipyridine]-6-carboxamide]: the EC50 turned out to be 128 µM.

Turning to `Cn1cc(NC(=O)c2cccc(-c3ccc4[nH]ccc4c3)n2)c(-c2ccccn2)n1` [Compound I-46, 6-(1H-indol-5-yl)-N-(1-methyl-3-(pyridin-2-yl)-1H-pyrazol-4-yl)picolinamide], the EC50 is 3.5 µM.

On to `COCCn1cc(NC(=O)c2cccc(-c3ccncc3)n2)c(-c2ccccn2)n1` [Compound I-107, N-(1-(2-methoxyethyl)-3-(pyridin-2-yl)-1H-pyrazol-4-yl)-[2,4′-bipyridine]-6-carboxamide formate], for which the EC50 is 3.58 µM.

In the case of `Cn1cc(NC(=O)c2cccc(C3=CCNCC3)n2)c(-c2ccccn2)n1` [Compound I-62, N-(1-methyl-3-(pyridin-2-yl)-1H-pyrazol-4-yl)-1′,2′,3′,6′-tetrahydro-[2,4′-bipyridine]-6-carboxamide], the EC50 came out at 28 µM.

In the case of `Cn1cc(NC(=O)c2cccc(-c3ccnc(NCC4CC4)c3)n2)c(-c2ccccn2)n1` [Compound I-159, 2′-((cyclopropylmethyl)amino)-N-(1-methyl-3-(pyridin-2-yl)-1H-pyrazol-4-yl)-[2,4′-bipyridine]-6-carboxamide formate], the EC50 amounted to 14.7 µM.

Consider `O=C(Nc1cn(C(CO)CO)nc1-c1ccccn1)c1cccc(-c2cn[nH]c2)n1` [Compound I-127, N-(1-(1,3-dihydroxypropan-2-yl)-3-(pyridin-2-yl)-1H-pyrazol-4-yl)-6-(1H-pyrazol-4-yl)picolinamide], for which the EC50 is 18.2 µM.

`Cc1ccc(-c2cccc(C(=O)Nc3cn(C)nc3-c3ccccn3)n2)cc1` [Compound I-50, N-(1-methyl-3-(pyridin-2-yl)-1H-pyrazol-4-yl)-6-(p-tolyl)picolinamide]: the EC50 worked out at 5.44 µM.

Regarding `Cn1cc(NC(=O)c2cccc(-c3cncc(F)c3)n2)c(-c2ccccn2)n1` [Compound I-3, 5′-fluoro-N-(1-methyl-3-(pyridin-2-yl)-1H-pyrazol-4-yl)-[2,3′-bipyridine]-6-carboxamide], the EC50 is 21.5 µM.

For the compound `Cn1cc(NC(=O)c2cccc(-c3cccc(NS(C)(=O)=O)c3)n2)c(-c2ccccn2)n1` [Compound I-60, N-(1-methyl-3-(pyridin-2-yl)-1H-pyrazol-4-yl)-6-(3-(methylsulfonamido)phenyl)picolinamide], the EC50 is 14.8 µM.

`Cn1cc(NC(=O)c2cccc(-c3ccnc(C(N)=O)c3)n2)c(-c2ccccn2)n1` [Compound I-41, N6-(1-methyl-3-(pyridin-2-yl)-1H-pyrazol-4-yl)-[2,4-bipyridine]-2′,6-dicarboxamide]: the EC50 worked out at 116 µM.
